Experimental data taken from PMC8325119, “A Novel Class of Functionalized Synthetic Fluoroquinolones with Dual Antiproliferative - Antimicrobial Capacities” (Asian Pacific Journal of Cancer Prevention : APJCP, 2021).
In brackets after ≈: the same amount, converted by molar mass. Several values for one entry are separate records, joined by “and”; a condition that tells them apart may be missing. Equal values may be shown once. Read-outs that look alike come from different tables or passages of the source.

Tests used:
K562 cell line = experiment: SRB cytotoxicity assay, K562 leukaemia cell line; conditions: Homo sapiens, K562, 72 h
HELA cell line = experiment: SRB cytotoxicity assay, HELA cervical cancer cell line; conditions: Homo sapiens, HeLa, 72 h
A375.S2 cell line = experiment: SRB cytotoxicity assay, A375.S2 melanoma cell line; conditions: Homo sapiens, A375-S2, 72 h, read-out: Cytotoxicity IC50 value, A375.S2 cell line
PANC 1 cell line = experiment: SRB cytotoxicity assay, PANC 1 pancreatic cancer cell line; conditions: Homo sapiens, PANC-1, 72 h, read-out: Cytotoxicity IC50 value, PANC 1 cell line
[1] = system: Staphylococcus aureus (S. aureus) ATCC 6538; experiment: Quantitative antimicrobial assessment (MIC) against S. aureus; assay type: cell-based; conditions: for Antibacterial activity (in words): esters vs free acid, Gram positive strain context; for MIC: Staphylococcus aureus, ATCC6538, Gram positive, ATCC 6538; for MIC potency compared with ciprofloxacin, S. aureus: in words
T47D cell line = experiment: cells; conditions: Homo sapiens, T47D, 72 h, read-out: Cytotoxicity IC50 value, T47D cell line
Outline: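 Cells were cultured in DMEM supplemented with FBS, HEPES buffer, L-glutamine and antibiotics, then exposed to compounds. Viability loss was read by SRB staining to give IC50.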

A549 cell line = experiment: SRB cytotoxicity assay, A549 lung cancer cell line; conditions: Homo sapiens, A549, 72 h, read-out: Cytotoxicity IC50 value, A549 cell line
MCF7 cell line = experiment: SRB cytotoxicity assay, MCF7 breast cancer cell line; conditions: Homo sapiens, MCF7, 72 h, read-out: Cytotoxicity IC50 value, MCF7 cell line
PDL Fibroblasts = experiment: SRB cytotoxicity on normal periodontal ligament fibroblasts, selective cytotoxicity; assay type: cell-based, Human; conditions: for IC50: Homo sapiens, Fibroblast, normal fibroblasts, SRB, 72 h, mean ± SD; for Selectivity index SI (A375.S2): IC50 on PDL fibroblasts divided by IC50 on A375.S2; for Selectivity index SI (K562): IC50 on PDL fibroblasts divided by IC50 on K562
Outline: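 Human periodontal ligament fibroblasts, a primary normal culture, tested by SRB colorimetric assay for cell viability. Selectivity ratio = IC50 on normal fibroblasts divided by IC50 on the pathological cell line.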

[2] = system: Candida albicans (C. albicans) ATCC 1023; experiment: Quantitative antimycotic assessment (MIC) against C. albicans; assay type: cell-based; conditions: in words
[3] = read-out: Cytotoxicity IC50 value, K562 cell line, SRB, 72 h, 0.1-200 μg/mL range, mean ± SD, NI = lack of cytotoxicity in range
[4] = read-out: Cytotoxicity IC50 value, HELA cell line, SRB, 72 h, 0.1-200 μg/mL range, mean ± SD, value in brackets
[5] = read-out: Cytotoxicity IC50 value, HELA cell line, SRB, 72 h, 0.1-200 μg/mL range, mean ± SD, NI = lack of cytotoxicity in range
[6] = read-out: Cytotoxicity IC50 value, K562 cell line, SRB, 72 h, 0.1-200 μg/mL range, mean ± SD, value in brackets
[7] = 0.1-200 μg/mL range, NI = lack of cytotoxicity in range

| Compound | IC50 (K562 cell line; [3]) | IC50 (HELA cell line; [4]) | IC50 (HELA cell line; [5]) | IC50 (A375.S2 cell line) | IC50 (PANC 1 cell line) | Antibacterial activity (in words) [1] | IC50 (T47D cell line) | IC50 (A549 cell line) | IC50 (MCF7 cell line) | IC50 (K562 cell line; [6]) | IC50 (PDL Fibroblasts; [7]) | IC50 (PDL Fibroblasts; value in brackets) | Selectivity index SI (A375.S2) (PDL Fibroblasts) | Selectivity index SI (K562) (PDL Fibroblasts) | MIC [1] | MIC potency compared with ciprofloxacin, S. aureus [1] | Antimycotic MIC potency compared with fluconazole, C. albicans [2] | Selectivity index SI (PANC 1) (PDL Fibroblasts; IC50 on PDL fibroblasts divided by IC50 on PANC 1) | Selectivity index SI (MCF7) (PDL Fibroblasts; IC50 on PDL fibroblasts divided by IC50 on MCF7) |
| --- | --- | --- | --- | --- | --- | --- | --- | --- | --- | --- | --- | --- | --- | --- | --- | --- | --- | --- | --- |
| O=C(O)c1cn(C2CC2)c2c([N+](=O)[O-])c(Cl)c(F)cc2c1=O [1A] | > 200 µg/mL | 7.02 µg/mL | 19.8 ± 1.48 µM | 10 µM and 3.52 µg/mL | 59.1 µM and 21 µg/mL | incomparably appreciable activity | > 200 µg/mL | 57.9 µM and 20.4 µg/mL | 3.32 µM and 1.17 µg/mL |  |  |  |  |  |  |  |  |  |  |
| CCOC(=O)c1cn(C2CC2)c2c([N+](=O)[O-])c(Nc3ccccc3OC)c(F)cc2c1=O [2A] |  |  |  |  |  | lacked antibacterial activity |  |  |  |  |  |  |  |  |  |  |  |  |  |
| CCOC(=O)c1cn(C2CC2)c2c([N+](=O)[O-])c(Nc3ccc(F)cc3)c(F)cc2c1=O [2H] | 806 ± 59.2 µM | 647 µg/mL | 1510 ± 68.2 µM | 271 µM and 121 µg/mL | 485 µM and 208 µg/mL | lacked antibacterial activity | 833 µM and 344 µg/mL | 447 µM and 200 µg/mL | > 200 µg/mL | 346 µg/mL | 560 ± 87.5 µM | 231 µg/mL | 2.07 |  |  |  |  |  |  |
| COc1cccc(Nc2c(F)cc3c(=O)c(C(=O)O)cn(C4CC4)c3c2N)c1 [4b, 8-amino-1-cyclopropyl-6-fluoro-7-(3-methoxy-phenylamino)-4-oxo-1,4-dihydro-quinoline-3-carboxylic acid] | 17 ± 2.57 µM |  |  | 120 µM and 46 µg/mL | 155 µM and 59.2 µg/mL |  | 149 µM and 57.2 µg/mL | 229 µM and 87.6 µg/mL | 177 µM and 67.7 µg/mL | 6.5 µg/mL | 276 ± 20.2 µM | 106 µg/mL |  | 16.25 | 0.024 µM (≈ 9.2 ng/mL) |  |  |  |  |
| COc1ccc(Nc2c(F)cc3c(=O)c(C(=O)O)cn(C4CC4)c3c2N)c(OC)c1 [4g, 8-amino-1-cyclopropyl-7-(2,4-dimethoxy-phenylamino)-6-fluoro-4-oxo-1,4-dihydro-quinoline-3-carboxylic acid] | > 200 µg/mL | 120 µg/mL | 277 ± 39 µM | 807 µM and 348 µg/mL | 310 µM and 128 µg/mL |  | 1.01 mM and 435 µg/mL | 709 µM and 306 µg/mL | 317 µM and 137 µg/mL |  | > 200 µg/mL |  |  |  | 0.004 µM (≈ 1.65 ng/mL) | significantly more potent than ciprofloxacin |  |  |  |
| COc1ccccc1-n1nnc2c3c(cc(F)c21)c(=O)c(C(=O)O)cn3C1CC1 [5a, 9-cyclopropyl-4-fluoro-3-(2-methoxy-phenyl)-6-oxo-6,9-dihydro-3H-[1,2, and 3] triazolo [4,5-h] quinoline-7-carboxylic acid] | 41.7 ± 6.86 µM | 124 µg/mL | 299 ± 11.4 µM | 171 µM and 67.2 µg/mL | 201 µM and 78.9 µg/mL |  | 42.1 µM and 16.6 µg/mL | > 200 µg/mL | 44.3 µM and 17.4 µg/mL | 16.4 µg/mL | 279 ± 27.4 µM | 110 µg/mL |  | 6.71 |  | significantly more potent than ciprofloxacin |  |  |  |
| CCc1ccc(-n2nnc3c4c(cc(F)c32)c(=O)c(C(=O)O)cn4C2CC2)cc1 [5d, 9-cyclopropyl-4-fluoro-3-(4-ethyl-phenyl)-6-oxo-6,9-dihydro-3H-[1,2,3] triazolo[4,5-h]quinoline-7-carboxylic acid] | 163 ± 22.6 µM | 447 µg/mL | 1140 ± 82.4 µM | 124 µM and 48.5 µg/mL | 163 µM and 63.8 µg/mL |  | 372 µM and 146 µg/mL | 161 µM and 63 µg/mL | 177 µM and 69.1 µg/mL | 63.8 µg/mL | 165 ± 16.1 µM | 64.5 µg/mL | 1.33 |  |  | significantly more potent than ciprofloxacin |  |  |  |
| CCCCc1ccc(-n2nnc3c4c(cc(F)c32)c(=O)c(C(=O)O)cn4C2CC2)cc1 [5e, 9-cyclopropyl-4-fluoro-3-(4-butyl-phenyl)-6-oxo-6,9-dihydro-3H-[1,2,3] triazolo[4,5-h]quinoline-7-carboxylic acid] | 49 ± 7.2 µM | 153 µg/mL | 364 ± 22.8 µM | 103 µM and 43.1 µg/mL | 87.1 µM and 36.5 µg/mL |  | 97.6 µM and 41 µg/mL | 181 µM and 76 µg/mL | 105 µM and 44.2 µg/mL | 20.6 µg/mL | 72.6 ± 3.56 µM | 30.4 µg/mL |  | 1.48 |  |  | more potent than antimycotic flucanozole |  |  |
| CCn1cc(C(=O)O)c(=O)c2cc(F)c(Nc3cccc(OC)c3)c([N+](=O)[O-])c21 [11b, 1-ethyl-6-fluoro-7-(3-methoxy-phenylamino)-8-nitro-4-oxo-1,4-dihydro-quinoline-3-carboxylic acid] | 58 ± 9.12 µM | 79 µg/mL | 197 ± 38.3 µM | > 200 µg/mL | > 200 µg/mL |  | > 200 µg/mL | > 200 µg/mL | > 200 µg/mL | 23.3 µg/mL | > 200 µg/mL |  |  |  |  |  |  |  |  |
| CCn1cc(C(=O)O)c(=O)c2cc(F)c(Nc3ccc(OC)cc3OC)c([N+](=O)[O-])c21 [11c, 7-(2,4-dimethoxy-phenylamino)-1-ethyl-6-fluoro-8-nitro-4-oxo-1,4-dihydro-quinoline-3-carboxylic acid] | > 200 µg/mL |  | > 200 µg/mL | > 200 µg/mL | 124 µM and 53.3 µg/mL |  | 431 µM and 186 µg/mL | > 200 µg/mL | > 200 µg/mL |  | 285 ± 28.7 µM | 123 µg/mL |  |  |  |  |  | 2.31 |  |
| CCn1cc(C(=O)O)c(=O)c2cc(F)c(Nc3ccccc3OC)c(N)c21 [12a, 8-amino-1-ethyl-6-fluoro-7-(2-methoxy-phenylamino)-4-oxo-1,4-dihydro-quinoline-3-carboxylic acid] | 21 ± 0.62 µM | 9.45 µg/mL | 25.4 ± 3.92 µM | 373 µM and 138 µg/mL | 142 µM and 52.6 µg/mL |  | 83.5 µM and 31 µg/mL | > 200 µg/mL | 125 µM and 46.5 µg/mL | 7.79 µg/mL | 170 ± 15.1 µM | 63.2 µg/mL |  | 8.10 |  |  |  |  |  |
| CCn1cc(C(=O)O)c(=O)c2cc(F)c(Nc3cccc(OC)c3)c(N)c21 [12b, 8-amino-1-ethyl-6-fluoro-7-(3-methoxy-phenylamino)-4-oxo-1,4-dihydro-quinoline-3-carboxylic acid] | 35.4 ± 3.8 µM | 83.6 µg/mL | 225 ± 34 µM | 112 µM and 41.7 µg/mL | 35.4 µM and 13.2 µg/mL |  | 169 µM and 62.7 µg/mL | 163 µM and 60.4 µg/mL | 492 µM and 183 µg/mL | 13.2 µg/mL | 150 ± 6.73 µM | 55.5 µg/mL |  | 4.22 |  |  |  |  |  |
| CCn1cc(C(=O)O)c(=O)c2cc(F)c3c(nnn3-c3ccc(OC)cc3OC)c21 [13c, 3-(2,4-dimethoxy-phenyl)-9-ethyl-4-fluoro-6-oxo-6,9-dihydro-3H-[1,2,3] triazolo[4,5-h]quinoline-7-carboxylic acid] | 68.7 ± 8.04 µM | 179 µg/mL | 435 ± 71.7 µM | 487 µM and 201 µg/mL | 138 µM and 56.6 µg/mL |  | 182 µM and 74.7 µg/mL | 662 µM and 272 µg/mL | 4.15 µM and 1.71 µg/mL | 28.2 µg/mL | 172 ± 17.8 µM | 70.6 µg/mL |  |  |  | significantly more potent than ciprofloxacin |  |  | 41.35 |
| O=C(O)c1cn(C2CC2)c2cc(N3CCNCC3)c(F)cc2c1=O [ciprofloxacin, reference compound] |  |  |  |  |  |  |  |  |  |  |  |  |  |  | 1.12 µM (≈ 371 ng/mL) |  |  |  |  |
